The IC50 is the concentration needed to halve the response being measured.

Holding throughout (type): biochemical
Holding throughout (conditions): 5 μM substrate, 2 hours at room temperature

In test [1] the target is Human recombinant full length HDAC1 (Homo sapiens (Human), UniProt Q13547). The test is described as follows: HDAC1 assay (Test 2), acetyl-Gly-Ala-Lys(acetyl)-AMC substrate. On the procedure:
(§1) Human recombinant HDAC4 was expressed in full length form (aa 2-1084) in Sf9 insect cells (obtained from ATCC) using baculovirus generated with Bac-to-Bac system (Invitrogen). Test compounds were serially diluted to reach final test concentrations from 0.000128 μM to 10 μM. HDAC4 and test compounds were incubated in 25 mM Tris buffer pH 8.0 containing 137 mM NaCl, 2.7 mM KCl, 1 mM MgCl2, 0.05% (w/v) bovine serum albumine and 0.005% (v/v) Triton-X-100 for 2 hours at room temperature in presence of 5 μM of acetyl-Gly-Ala-Lys(ε-trifluoroacetyl)-AMC (AMC=7-amino-4-methyl coumarin) in a final volume of 9 μl. Control wells with HDAC4 only (positive control) and without HDAC4 (negative control) were included on the microplate. Bovine trypsin (4.5 μl of a 300 nM solution) was added and the plate incubated for additional 15 minutes at room temperature. The plate was placed in a fluorescence microplate reader, and read at an excitation wavelength of 360 nm and an emission wavelength of 450 nm with a 10 nm bandpath. Fluorescence values for all wells containing HDAC4 (positive control and wells with test compound) were corrected by subtracting negative control fluorescence values, and IC50 values were calculated by fitting the dose-response curves to a 4-parameter logistic function.
Test 2: HDAC1 Assay Description
A similar assay procedure as described in Test 1 was used for HDAC1. Human recombinant full length HDAC1 expressed in a baculovirus expression system was purchased from BPS BioSciences (San Diego, Calif., U.S.A.). The substrate used in the […] assay was 5 μM of acetyl-Gly-Ala-Lys(acetyl)-AMC.

The target in test [2] is Human recombinant full length HDAC6 (Homo sapiens (Human), UniProt Q9UBN7). The test is described as follows: HDAC6 assay (Test 3), acetyl-Gly-Ala-Lys(acetyl)-AMC substrate. On the procedure: as §1
Test 3: HDAC6 Assay Description
A similar assay procedure as described in Test 1 was used for HDAC6. Human recombinant full length HDAC6 expressed in a baculovirus expression system was purchased from BPS BioSciences (San Diego, Calif., U.S.A.). The substrate used in the […] assay was 5 μM of acetyl-Gly-Ala-Lys (acetyl)-AMC.

For the next test, the target named is Human recombinant HDAC4 (Homo sapiens (Human), UniProt P56524). Put plainly: HDAC4 assay (Test 1), fluorescence, acetyl-Gly-Ala-Lys(ε-trifluoroacetyl)-AMC substrate. On the procedure:
Test 1: HDAC4 Assay Description
as §1

Chain of Human recombinant full length HDAC1 (Q13547 whole entry, the tested form may be a part): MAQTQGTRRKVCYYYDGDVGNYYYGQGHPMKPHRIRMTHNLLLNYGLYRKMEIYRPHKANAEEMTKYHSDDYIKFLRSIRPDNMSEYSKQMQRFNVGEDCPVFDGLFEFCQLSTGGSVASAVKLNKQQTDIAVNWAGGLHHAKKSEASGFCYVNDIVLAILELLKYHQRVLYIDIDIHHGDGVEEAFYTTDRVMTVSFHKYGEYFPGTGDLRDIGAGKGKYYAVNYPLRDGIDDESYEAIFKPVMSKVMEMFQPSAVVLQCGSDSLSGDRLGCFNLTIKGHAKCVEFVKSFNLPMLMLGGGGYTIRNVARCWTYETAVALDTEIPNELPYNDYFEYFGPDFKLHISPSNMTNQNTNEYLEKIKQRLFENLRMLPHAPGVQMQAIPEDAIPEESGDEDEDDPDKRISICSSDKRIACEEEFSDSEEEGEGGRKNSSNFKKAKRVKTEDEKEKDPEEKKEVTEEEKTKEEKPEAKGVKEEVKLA
Chain of Human recombinant HDAC4 (P56524 2-1084): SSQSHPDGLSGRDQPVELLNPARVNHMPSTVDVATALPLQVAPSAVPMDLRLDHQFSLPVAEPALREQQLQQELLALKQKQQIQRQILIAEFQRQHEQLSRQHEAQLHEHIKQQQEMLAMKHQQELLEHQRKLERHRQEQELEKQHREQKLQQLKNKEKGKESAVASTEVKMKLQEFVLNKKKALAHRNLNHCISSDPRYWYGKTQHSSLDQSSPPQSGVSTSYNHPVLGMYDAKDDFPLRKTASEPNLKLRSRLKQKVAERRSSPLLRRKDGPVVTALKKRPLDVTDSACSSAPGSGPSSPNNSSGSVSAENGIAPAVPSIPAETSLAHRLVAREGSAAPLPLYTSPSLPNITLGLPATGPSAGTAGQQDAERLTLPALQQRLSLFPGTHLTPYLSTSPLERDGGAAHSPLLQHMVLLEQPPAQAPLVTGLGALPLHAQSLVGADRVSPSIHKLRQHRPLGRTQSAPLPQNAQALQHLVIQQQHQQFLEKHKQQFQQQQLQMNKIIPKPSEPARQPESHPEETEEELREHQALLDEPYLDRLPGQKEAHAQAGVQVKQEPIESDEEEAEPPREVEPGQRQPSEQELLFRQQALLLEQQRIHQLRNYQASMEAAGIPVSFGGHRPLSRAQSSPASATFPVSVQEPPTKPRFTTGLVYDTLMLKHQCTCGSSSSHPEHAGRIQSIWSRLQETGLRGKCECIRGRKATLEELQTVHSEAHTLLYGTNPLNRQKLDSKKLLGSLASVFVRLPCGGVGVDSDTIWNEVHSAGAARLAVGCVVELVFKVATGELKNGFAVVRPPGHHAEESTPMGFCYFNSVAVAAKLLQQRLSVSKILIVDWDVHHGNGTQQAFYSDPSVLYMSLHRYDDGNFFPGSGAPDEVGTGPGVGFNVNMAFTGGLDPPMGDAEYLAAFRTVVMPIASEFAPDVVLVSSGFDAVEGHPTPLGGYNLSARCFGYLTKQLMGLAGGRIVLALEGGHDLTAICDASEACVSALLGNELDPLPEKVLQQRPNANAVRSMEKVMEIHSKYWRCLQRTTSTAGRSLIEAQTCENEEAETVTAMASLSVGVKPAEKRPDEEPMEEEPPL
Chain of Human recombinant full length HDAC6 (Q9UBN7 whole entry): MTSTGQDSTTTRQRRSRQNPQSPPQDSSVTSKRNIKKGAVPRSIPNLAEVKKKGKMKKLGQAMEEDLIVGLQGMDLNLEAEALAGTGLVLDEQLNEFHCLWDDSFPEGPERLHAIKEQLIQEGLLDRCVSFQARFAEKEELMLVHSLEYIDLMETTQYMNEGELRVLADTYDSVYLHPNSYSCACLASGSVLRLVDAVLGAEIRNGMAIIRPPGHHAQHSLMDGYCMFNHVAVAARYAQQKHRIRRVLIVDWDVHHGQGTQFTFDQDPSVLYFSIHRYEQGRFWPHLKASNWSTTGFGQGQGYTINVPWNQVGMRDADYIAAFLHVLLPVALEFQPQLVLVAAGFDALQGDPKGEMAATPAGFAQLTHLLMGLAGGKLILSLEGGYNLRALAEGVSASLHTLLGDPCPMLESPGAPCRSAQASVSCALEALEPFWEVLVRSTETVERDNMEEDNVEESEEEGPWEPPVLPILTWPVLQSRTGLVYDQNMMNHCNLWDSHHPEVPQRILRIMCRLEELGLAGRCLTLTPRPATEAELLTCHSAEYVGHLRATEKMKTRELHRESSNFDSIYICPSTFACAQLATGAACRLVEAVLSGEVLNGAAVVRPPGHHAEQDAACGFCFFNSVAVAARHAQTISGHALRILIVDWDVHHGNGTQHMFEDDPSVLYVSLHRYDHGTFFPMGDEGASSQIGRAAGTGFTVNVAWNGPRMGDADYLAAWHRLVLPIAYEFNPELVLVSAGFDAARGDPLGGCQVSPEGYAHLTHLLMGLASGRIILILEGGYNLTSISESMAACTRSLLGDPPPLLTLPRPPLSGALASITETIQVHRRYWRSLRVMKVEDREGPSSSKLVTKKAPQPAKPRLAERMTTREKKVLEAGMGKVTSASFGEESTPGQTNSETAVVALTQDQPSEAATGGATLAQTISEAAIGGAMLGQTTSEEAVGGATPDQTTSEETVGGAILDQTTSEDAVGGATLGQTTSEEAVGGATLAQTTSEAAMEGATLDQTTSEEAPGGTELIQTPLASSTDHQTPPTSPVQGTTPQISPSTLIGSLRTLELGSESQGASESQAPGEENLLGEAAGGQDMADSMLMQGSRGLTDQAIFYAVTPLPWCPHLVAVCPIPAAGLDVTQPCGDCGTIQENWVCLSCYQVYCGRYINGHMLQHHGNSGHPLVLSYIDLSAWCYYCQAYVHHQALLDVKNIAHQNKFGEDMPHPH

Consider `CC(=O)Nc1cnc(-c2noc(C(F)(F)F)n2)cn1` [Example 1, N-(5-(5-(trifluoromethyl)-1,2,4-oxadiazol-3-yl)pyrazin-2-yl)acetamide], for which the IC50 in test [1] is more than 10000 nM; in test [2], 1700 nM; at Human recombinant HDAC4, 460 nM.

With `N#Cc1ccc(C(=O)Nc2cnc(-c3noc(C(F)(F)F)n3)cn2)cc1` [Example 2, 4-Cyano-N-(5-(5-(trifluoromethyl)-1,2,4-oxadiazol-3-yl)pyrazin-2-yl)benzamide], the IC50 is more than 10000 nM in test [1], 2600 nM in test [2] and 1400 nM at Human recombinant HDAC4.

With `CN(Cc1ccncc1)c1ncc(-c2noc(C(F)(F)F)n2)cn1` [Example 3, N-methyl-N-(pyridin-4-ylmethyl)-5-(5-(trifluoromethyl)-1,2,4-oxadiazol-3-yl)pyrimidin-2-amine], the IC50 was found to be 3200 nM in test [1], 6700 nM in test [2] and 39 nM on Human recombinant HDAC4.

With `FC(F)(F)c1nc(-c2cnc(NCc3ccccc3)nc2)no1` [Example 4, N-benzyl-5-(5-(trifluoromethyl)-1,2,4-oxadiazol-3-yl)pyrimidin-2-amine], the figures for the IC50 (in test [1]; in test [2]; on Human recombinant HDAC4) were more than 10000 nM, 320 nM and 36 nM, respectively.

For the compound `CN(Cc1ccnc(Cl)c1)c1ncc(-c2noc(C(F)(F)F)n2)cn1` [Example 5, N-((2-chloropyridin-4-yl)methyl)-N-methyl-5-(5-(trifluoromethyl)-1,2,4-oxadiazol-3-yl)pyrimidin-2-amine], the IC50 was 1700 nM in test [1], 2100 nM in test [2] and 40 nM at Human recombinant HDAC4.

For the compound `FC(F)(F)c1nc(-c2cnc(NCc3ccncc3)nc2)no1` [Example 6, N-(pyridin-4-ylmethyl)-5-(5-(trifluoromethyl)-1,2,4-oxadiazol-3-yl)pyrimidin-2-amine], the IC50 in test [1] stood at 620 nM; in test [2] it was 990 nM; at Human recombinant HDAC4, 44 nM.

`CC(Nc1ncc(-c2noc(C(F)(F)F)n2)cn1)c1ccccc1` (stereo not drawn) [Example 7, N-(1-phenylethyl)-5-(5-(trifluoromethyl)-1,2,4-oxadiazol-3-yl)pyrimidin-2-amine]: the values for the IC50 (in test [1]; in test [2]; on Human recombinant HDAC4) were more than 10000 nM, more than 400 nM and 120 nM, respectively.

Turning to `Cc1ccc(CNc2ncc(-c3noc(C(F)(F)F)n3)cn2)cn1` [Example 8, N-((6-methylpyridin-3-yl)methyl)-5-(5-(trifluoromethyl)-1,2,4-oxadiazol-3-yl)pyrimidin-2-amine], the results for the IC50 (in test [1]; in test [2]; on Human recombinant HDAC4) were 3000 nM, 250 nM and 25 nM, respectively.

Take `CC(Nc1ncc(-c2noc(C(F)(F)F)n2)cn1)c1ccncc1` (stereo not drawn) [Example 9, N-(1-(pyridin-4-yl)ethyl)-5-(5-(trifluoromethyl)-1,2,4-oxadiazol-3-yl)pyrimidin-2-amine]: the IC50 in test [1] amounted to 4100 nM; in test [2] it was 560 nM; on Human recombinant HDAC4, 22 nM.

Consider `FC(F)(F)c1nc(-c2cnc(NCc3cccnc3)nc2)no1` [Example 10, N-(pyridin-3-ylmethyl)-5-(5-(trifluoromethyl)-1,2,4-oxadiazol-3-yl)pyrimidin-2-amine], for which the IC50 worked out at 6600 nM in test [1], 1100 nM in test [2] and 140 nM on Human recombinant HDAC4.

As for `Cc1cccc(CNc2ncc(-c3noc(C(F)(F)F)n3)cn2)n1` [Example 11, N-((6-methylpyridin-2-yl)methyl)-5-(5-(trifluoromethyl)-1,2,4-oxadiazol-3-yl)pyrimidin-2-amine], the IC50 in test [1] was 510 nM; in test [2], 550 nM; at Human recombinant HDAC4, 240 nM.

For `C[C@@H](Nc1ncc(-c2noc(C(F)(F)F)n2)cn1)c1ccccc1` [Example 12, (R)—N-(1-phenylethyl)-5-(5-(trifluoromethyl)-1,2,4-oxadiazol-3-yl)pyrimidin-2-amine], the IC50 in test [1] turned out to be 3500 nM; in test [2] it was 340 nM; at Human recombinant HDAC4, 49 nM.

Turning to `CC[C@@H](Nc1ncc(-c2noc(C(F)(F)F)n2)cn1)c1ccccc1` [Example 13, (R)—N-(1-phenylpropyl)-5-(5-(trifluoromethyl)-1,2,4-oxadiazol-3-yl)pyrimidin-2-amine], the IC50 in test [1] was determined as 1700 nM; in test [2], 140 nM; on Human recombinant HDAC4, 22 nM.

For the compound `CN(CCc1ccncc1)c1ncc(-c2noc(C(F)(F)F)n2)cn1` [Example 14, N-methyl-N-(2-(pyridin-4-yl)ethyl)-5-(5-(trifluoromethyl)-1,2,4-oxadiazol-3-yl)pyrimidin-2-amine], the figures for the IC50 (in test [1]; in test [2]; on Human recombinant HDAC4) were 7600 nM, more than 10000 nM and 110 nM, respectively.

As for `CCC(Nc1ncc(-c2noc(C(F)(F)F)n2)cn1)c1ccncc1` (stereo not drawn) [Example 15, N-(1-(pyridin-4-yl)propyl)-5-(5-(trifluoromethyl)-1,2,4-oxadiazol-3-yl)pyrimidin-2-amine], the IC50 in test [1] was 2600 nM; in test [2] it was 210 nM; on Human recombinant HDAC4, 20 nM.

Consider `Cc1cc(C(C)Nc2ncc(-c3noc(C(F)(F)F)n3)cn2)ccn1` (stereo not drawn) [Example 16], for which the IC50 in test [1] was 1600 nM; in test [2], 350 nM; on Human recombinant HDAC4, 44 nM.

As to `Cc1cc(CN(C)c2ncc(-c3noc(C(F)(F)F)n3)cn2)ccn1` [Example 17, N-methyl-N-((2-methylpyridin-4-yl)methyl)-5-(5-(trifluoromethyl)-1,2,4-oxadiazol-3-yl)pyrimidin-2-amine], the IC50 in test [1] was 2200 nM; in test [2], 3500 nM; on Human recombinant HDAC4, 34 nM.

Turning to `C[C@H](CN(C)C)NC(=O)c1ccc(-c2noc(C(F)(F)F)n2)nc1` [Example 18, (R)—N-(1-(dimethylamino)propan-2-yl)-6-(5-(trifluoromethyl)-1,2,4-oxadiazol-3-yl)nicotinamide], the IC50 in test [1] is more than 10000 nM; in test [2], more than 10000 nM; on Human recombinant HDAC4 it was 250 nM.

As for `CC(CN(C)C)NC(=O)c1ccc(-c2noc(C(F)(F)F)n2)nc1` (stereo not drawn) [Example 19, N-(1-(dimethylamino)propan-2-yl)-6-(5-(trifluoromethyl)-1,2,4-oxadiazol-3-yl)nicotinamide], the results for the IC50 (in test [1]; in test [2]; on Human recombinant HDAC4) were 1700 nM, more than 10000 nM and 350 nM, respectively.

Turning to `C[C@@H](CO)NC(=O)c1ccc(-c2noc(C(F)(F)F)n2)nc1` [Example 20, (S)—N-(1-hydroxypropan-2-yl)-6-(5-(trifluoromethyl)-1,2,4-oxadiazol-3-yl)nicotinamide], the IC50 in test [1] was more than 10000 nM; in test [2] it was more than 10000 nM; at Human recombinant HDAC4 it was 4300 nM.

In the case of `C[C@H](CN(C)Cc1ccccc1)NC(=O)c1ccc(-c2noc(C(F)(F)F)n2)nc1` [Example 21, (R)—N-(1-(benzyl(methyl)amino)propan-2-yl)-6-(5-(trifluoromethyl)-1,2,4-oxadiazol-3-yl)nicotinamide], the IC50 in test [1] was more than 10000 nM; in test [2] it was more than 10000 nM; at Human recombinant HDAC4, 18 nM.

Regarding `CCN(CC)C[C@H](NC(=O)c1ccc(-c2noc(C(F)(F)F)n2)nc1)C(C)C` [Example 22, (R)—N-(1-(diethylamino)-3-methylbutan-2-yl)-6-(5-(trifluoromethyl)-1,2,4-oxadiazol-3-yl)nicotinamide], the IC50 in test [1] was more than 10000 nM; in test [2], more than 10000 nM; at Human recombinant HDAC4, 160 nM.

The values are drawn from patent publication US9670193B2 (Novartis AG, priority 2011, dated 2017).
